Measured values published in ChEMBL document CHEMBL5725277, “Pyrazine derivatives as CB2 receptor agonists” (2016).
pEC50: −log10 of the molar value.

Assays:
Cannabinoid receptor 1 = Cannabinoid receptor 1 (Homo sapiens, UniProt P21554); assay: (§1) cAMP Assay: CHO cells expressing human CB1 or CB2 receptors are seeded 17-24 hours prior to the experiment 50.000 cells per well in a black 96 well plate with flat clear bottom (Corning Costar #3904) in DMEM (Invitrogen No. 31331), 1xHT supplement, with 10% fetal calf serum and incubated at 5% CO2 and 37° C. in a humidified incubator. The growth medium was exchanged with Krebs Ringer Bicarbonate buffer with 1 mM IBMX and incubated at 30° C. for 30 min. Compounds were added to a final assay volume of 100 ul and incubated for 30 min at 30° C. Using the cAMP-Nano-TRF detection kit the assay (Roche Diagnostics) was stopped by the addition of 50 ul lysis reagent (Tris, NaCl, 1.5% Triton X100, 2.5% NP40, 10% NaN3) and 50 ul detection solutions (20 uM mAb Alexa700-cAMP 1:1, and 48 uM Ruthenium-2-AHA-cAMP) and shaken for 2 h at room temperature. The time-resolved energy transfer is measured by a TRF reader (Evotec Technologies GmbH), equipped with a ND:YAG laser as excitation source. The plate is measured twice with the excitation at 355 nm and at the emission with a delay of 100 ns and a gate of 100 ns, total exposure time 10 s at 730 (bandwidth 30 nm) or 645 nm (bandwidth 75 nm), respectively. The FRET signal is calculated as follows: FRET=T730-Alexa730-P (T645-B645) with P=Ru730-B730/Ru645-B645, where T730 is the test well measured at […], T645 is the test well measured at 645 nm, B730 and B645 are the buffer controls at 730 nm and 645 nm, respectively. cAMP content is determined from the function of a standard curve spanning from 10 uM to 0.13 nM cAMP. EC50 values were determined using Activity Base analysis (ID Business Solution, Limited). The EC50 values for a wide range of cannabinoid agonists generated from this assay were in agreement with the values published in the scientific literature.
Cannabinoid receptor 2 = Cannabinoid receptor 2 (Homo sapiens, UniProt P34972); assay: as §1
Sequence of Cannabinoid receptor 2 (P34972 whole entry): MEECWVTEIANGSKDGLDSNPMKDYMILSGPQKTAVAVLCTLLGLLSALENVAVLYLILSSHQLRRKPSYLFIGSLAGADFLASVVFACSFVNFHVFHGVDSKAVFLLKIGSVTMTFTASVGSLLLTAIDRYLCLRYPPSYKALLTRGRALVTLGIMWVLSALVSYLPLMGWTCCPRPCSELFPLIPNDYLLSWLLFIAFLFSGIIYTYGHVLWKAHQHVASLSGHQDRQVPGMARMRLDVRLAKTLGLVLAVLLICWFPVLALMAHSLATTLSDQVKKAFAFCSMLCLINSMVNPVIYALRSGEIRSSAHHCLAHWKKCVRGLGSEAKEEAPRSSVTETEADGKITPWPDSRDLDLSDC

Sequence of Cannabinoid receptor 1 (P21554 whole entry): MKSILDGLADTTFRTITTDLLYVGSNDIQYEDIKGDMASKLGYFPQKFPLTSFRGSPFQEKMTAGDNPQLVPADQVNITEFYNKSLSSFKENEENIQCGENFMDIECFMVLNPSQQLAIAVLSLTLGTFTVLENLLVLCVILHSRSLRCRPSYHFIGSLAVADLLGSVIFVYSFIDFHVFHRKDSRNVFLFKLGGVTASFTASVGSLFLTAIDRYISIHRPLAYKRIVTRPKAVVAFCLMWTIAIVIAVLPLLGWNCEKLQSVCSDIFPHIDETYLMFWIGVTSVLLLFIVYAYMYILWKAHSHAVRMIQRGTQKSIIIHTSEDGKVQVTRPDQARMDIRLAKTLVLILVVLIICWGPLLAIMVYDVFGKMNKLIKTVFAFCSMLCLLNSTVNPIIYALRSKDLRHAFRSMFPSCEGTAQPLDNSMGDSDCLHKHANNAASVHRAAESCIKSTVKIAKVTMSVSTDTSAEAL

`CC1(C)CCCN1C(=O)c1cnc(C2CC2)c(OCC2CC2)n1` gave a pEC50 (Cannabinoid receptor 1) of less than 5.00 and a pEC50 (Cannabinoid receptor 2) of 7.95.

Compound `CCN(C(=O)c1cnc(N2CC(F)(F)C2)c(OCC2CC2)n1)C(C)C` has a pEC50 (Cannabinoid receptor 1) of less than 5.00 and a pEC50 (Cannabinoid receptor 2) of 7.70.

`NC(=O)[C@@H]1CC(F)(F)CN1C(=O)c1cnc(C2CC2)c(OCC2CC2)n1` showed a pEC50 (Cannabinoid receptor 1) of less than 5.00 and a pEC50 (Cannabinoid receptor 2) of 7.63.
